Test results from patent US20120283802A1, “FAR-INFRARED RADIATION IN USE OF IMPROVING PATENCY OF ARTERIOVENOUS FISTULA, DECREASING FAILURE OF ARTERIOVENOUS FISTULA MATURATION, AND PREVENTING AND/OR AMELIORATING PERIPHERAL ARTERY DISEASES” (priority 2007, published 2012).

Key:
[1] = system: VCAM-1 expression in HUVECs; test: TNF-α-induced VCAM-1 expression in HUVECs, western blot; format: cell-based, Human
Protocol: Human umbilical vein endothelial cells (HUVEC) (Walkersville, Md.) were serially cultured on gelatin-coated dishes and propagated in M199 medium supplemented with 20% bovine calf serum, 2 mM L-glutamine, 50 μg/ml endothelial cell growth factor, 90 μg/ml heparin, and 100 U/ml of penicillin and streptomycin. The cells were treated with FIR for 10 min, 20 min, 40 min using WS™ TY101 FIR emitter (WS Far Infrared Medical Technology Co., Ltd., Taipei, Taiwan). The top emitter was set at a height of 25 cm above the surface of the cells. After FIR treatment, the cells were collected at 0 h, 2 h, 4 h, 6 h, 24 h, and 48 h, and then the expression of HO-1 was analyzed by western blot and quantified by laser densitometry. The cells were lysed in a sample buffer (125 mM Tris [pH 6.8], 12.5% glycerol, 2% SDS, 50 mM sodium fluoride, and trace bromophenol blue) and proteins were separated by SDS-PAGE. Following transfer to a nitrocellulose membrane, blots were blocked with PBS and nonfat milk (5%) and then incubated with antibodies directed against HO-1 (1:500). Membranes were then washed in PBS, incubated with horseradish peroxidase-conjugated goat anti-rabbit or anti-goat antibody and developed with commercial chemoluminescence reagents (Amersham, Arlington Heights, Ill.). […]
The expression of VCAM-1 was analyzed under different combinations of TNFα, FIR, HO-1 inhibitor by a western blot. […]

HO-1 expression = HO-1 expression by western blot quantified by laser densitometry; format: cell-based, Human; conditions: relative to control cells; SnPP 20 μM per Table 2
Protocol: Human umbilical vein endothelial cells (HUVEC) (Walkersville, Md.) were serially cultured on gelatin-coated dishes and propagated in M199 medium supplemented with 20% bovine calf serum, 2 mM L-glutamine, 50 μg/ml endothelial cell growth factor, 90 μg/ml heparin, and 100 U/ml of penicillin and streptomycin. The cells were treated with FIR for 10 min, 20 min, 40 min using WS™ TY101 FIR emitter (WS Far Infrared Medical Technology Co., Ltd., Taipei, Taiwan). The top emitter was set at a height of 25 cm above the surface of the cells. After FIR treatment, the cells were collected at 0 h, 2 h, 4 h, 6 h, 24 h, and 48 h, and then the expression of HO-1 was analyzed by western blot and quantified by laser densitometry. […]
U937 cells were classified into 10 groups (F, T, TF, STF, HTF, NTF, S, H, N, or C) according to the combination of different treatment, and the experimental conditions of groups are listed in Table 2. […] After 1 hour of incubation, nonadherent monocytes were removed by PBS washing and the radioactivity associated with adherent cells were quantified by scintillation spectrometry after lysis with 0.2% SDS/0.2 N NaOH. Additionally, the expression of HO-1 was analyzed by western blot and quantified by laser densitometry. […]

C=Cc1c2[n-]c(c1C)/C=c1\[n-]/c(c(C)c1C=C)=C\c1[n-]c(c(CCC(=O)O)c1C)/C=c1\[n-]c(c(C)c1CCC(=O)O)=C2.[Sn+4] [SnPP, tin protoporphyrin]
FIR-induced inhibitory effect of VCAM-1 expression ([1]; TNF-α 100 ng/ml + 40 min FIR, SnPP 10 μM (group 3) and 20 μM (group 4), higher expression at 20 μM): reversed
expression of VCAM-1 ([1]; single treatment with SnPP 20 μM, without pre-treatment with TNF-α (group 6)): did not induce
HO-1 expression, of that of the control cells (HO-1 expression): approximately 20%
